Patent US7622598B2, “Phenol derivatives and antitrypanosoma preventive/therapeutic agent comprising the same as active ingredient” (aRigen Pharmaceuticals, Inc., priority 2003, dated 2009)
Read-outs that look alike come from different tables or passages of the source.

Key:
[1] = biological target: cyanide resistant quinol enzyme of Trypanosoma (Trypanosoma brucei brucei, UniProt Q26710); assay: Respiration inhibition on the cyanide resistant quinol enzyme of Trypanosoma (recombinant enzyme); format: biochemical
cyanide resistant quinol enzyme of Trypanosoma, sequence (Q26710 whole entry): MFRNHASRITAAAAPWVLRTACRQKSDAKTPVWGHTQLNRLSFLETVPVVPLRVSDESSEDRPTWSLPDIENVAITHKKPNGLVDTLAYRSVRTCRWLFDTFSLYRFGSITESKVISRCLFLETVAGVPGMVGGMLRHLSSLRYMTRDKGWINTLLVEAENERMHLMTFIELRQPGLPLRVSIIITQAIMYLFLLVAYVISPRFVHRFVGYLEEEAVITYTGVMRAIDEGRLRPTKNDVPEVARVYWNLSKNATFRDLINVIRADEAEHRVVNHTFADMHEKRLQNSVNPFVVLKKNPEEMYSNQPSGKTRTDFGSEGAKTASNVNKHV
From the text: Antitrypanosoma Action (IC50)
The respiration inhibition effect of the novel phenol derivatives on the cyanide resistant quinol enzyme of Trypanosoma was examined with the use of a recombinant enzyme.

[2] = test system: Trypanosma brucei brucei; assay: Antitrypanosoma action in 24 h culture, minimum effective concentration, with or without glycerin; format: cell-based, Trypanosoma brucei brucei; conditions: for Minimum Effective Concentration, Presence of Glycerin: 5 mM of glycerin; for minimal effective concentration: Trypanosoma brucei, read-out: Minimum Effective Concentration, Absence of Glycerin
Experimental: With the use of a 96-well culture plate, each agent was adjusted to 10 mM with DMSO, and 5×10^5/ml of Trypanosma brucei brucei was added and cultured at 37° C. for 24 hours, and the minimum effective concentration was calculated.
The above described culture was conducted with the addition of 5 mM of glycerin under the same conditions as described above and observed.

[3] = test system: glycerol-3-phosphate-dependent respiration in the mitochondrial specimen of Trypanosoma brucei brucei; conditions: earlier filing JP H09-165332; cited from earlier work
[4] = test system: glycerol-3-phosphate-dependent respiration in the mitochondrial specimen of Trypanosoma brucei brucei; assay: Inhibition of glycerol-3-phosphate-dependent respiration in mitochondrial specimen; format: biochemical; conditions: mitochondrial specimen from T. brucei brucei multiplied in rat bloodstream
From the text: The inhibition effect of the novel halogen-containing phenol derivatives having an alkyl side chain on the glycerol-3-phosphate-dependent respiration in the mitochondrial specimen prepared by mechanically crushing the bodies of Trypanosoma brucei brucei multiplied in the rat bloodstream with glass beads and subjecting the crushed bodies to centrifugal fractionation was examined.

[5] = 5×10^5/ml, 37° C., 24 hours, no glycerin

Row | Compound | melting point [°C] | IC50 [1] [nM] | Minimum Effective Concentration, Presence of Glycerin ([2]; 5×10^5/ml, 37° C., 24 hours) [µM] | minimal effective concentration [2, 5] [µM] | other results
1 | CCCCCCCCCCCC(O)c1c(O)c(Cl)cc(C(=O)OC)c1O (centres unmarked) | 96 to 97 |  |  |  | 
2 | Cc1c(Cl)c(O)c(CCC(C)CCCC(C)[C@@H]2CC(=O)C(C)(C)O2)c(O)c1C=O (mixture of isomers) [compound 212, 3-Chloro-4,6-dihydroxy-2-methyl-5-[3-methyl-7-(tetrahydro-5,5-dimethyl-4-oxo-2-furanyl)octyl]-benzaldehyde] |  | 0.3 |  |  | 
3 | Cc1c(Cl)c(O)c(CCC(C)CCCC(C)C)c(O)c1C=O (racemic) [dl-218, 3-Chloro-5-(3,7-dimethyloctyl)-4,6-dihydroxy-2-methylbenzaldehyde] | 66 to 67 | 0.4 |  |  | 
4 | Cc1c(Cl)c(O)c(/C=C/C(C)CCCC(C)C)c(O)c1C=O (racemic) [dl-223, 3-Chloro-5-(3,7-dimethyl-1-octenyl)-4,6-dihydroxy-2-methylbenzaldehyde] |  | 1.1 |  |  | 
5 | CCCCCCCCC(O)c1c(O)cc(C)c(C=O)c1O (centres unmarked) [195-9, 2,4-Dihydroxy-3-(1-hydroxynonyl)-6-methylbenzaldehyde] |  | 30 | 25 | 25 | 
6 | CCCCCCCCCC(O)c1c(O)cc(C)c(C=O)c1O (centres unmarked) [195-10, 2,4-Dihydroxy-3-(1-hydroxydecyl)-6-methylbenzaldehyde] |  | 35 | 25 | 25 | 
7 | CCCCCCCCCCCC(O)c1c(O)cc(C)c(C=O)c1O (centres unmarked) [195-12, 2,4-Dihydroxy-3-(1-hydroxydodecyl)-6-methylbenzaldehyde] |  | 40 | 25 | 25 | 
8 | CCCCCCCCC(O)c1c(O)c(Cl)c(C)c(C=O)c1O (centres unmarked) [196-9, 5-Chloro-2,4-dihydroxy-3-(1-hydroxynonyl)-6-methylbenzaldehyde] |  | 0.5 | 0.8 | 50 | 
9 | CCCCCCCCCC(O)c1c(O)c(Cl)c(C)c(C=O)c1O (centres unmarked) [196-10, 5-Chloro-2,4-dihydroxy-3-(1-hydroxydecyl)-6-methylbenzaldehyde] |  | 0.6 | 0.8 | 100 | 
10 | CCCCCCCCCCCC(O)c1c(O)c(Cl)c(C)c(C=O)c1O (centres unmarked) [196-12, 5-Chloro-2,4-dihydroxy-3-(1-hydroxydodecyl)-6-methylbenzaldehyde] |  | 0.65 | 1.5 | 100 | 
11 | CCCCC/C=C/c1c(O)c(Cl)c(C)c(C=O)c1O [200-7, 5-Chloro-3-(1-heptenyl)-2,4-dihydroxy-6-methylbenzaldehyde] | 96 to 97 |  |  |  | 
12 | CCCCCCC/C=C/c1c(O)c(Cl)c(C)c(C=O)c1O [200-9, 5-chloro-2,4-dihydroxy-6-methyl-3-(1-nonenyl)benzaldehyde] | 79.5 to 80.5 | 0.4 | 0.8 | 100 | 
13 | CCCCCCCC/C=C/c1c(O)c(Cl)c(C)c(C=O)c1O [200-10, 5-Chloro-3-(1-decenyl)-2,4-dihydroxy-6-methylbenzaldehyde] | 83 to 84 | 0.45 | 0.8 | 100 | 
14 | CCCCCCCCCC/C=C/c1c(O)c(Cl)c(C)c(C=O)c1O [200-12, 5-Chloro-3-(1-dodecenyl)-2,4-dihydroxy-6-methylbenzaldehyde] |  | 0.5 | 1.5 | 100 | 
15 | CCCCCCCCCCCC(O)c1c(O)ccc(C=O)c1O (centres unmarked) [201-12, 2,4-Dihydroxy-3-(1-hydroxydodecyl)benzaldehyde] |  | 300 |  |  | 
16 | CCCCCCCCCCCC(O)c1c(O)c(Cl)cc(C=O)c1O (centres unmarked) [202-12, 5-Chloro-2,4-dihydroxy-3-(1-hydroxydodecyl)benzaldehyde] | 78 to 79 | 1.5 |  |  | 
17 | CCCCCCCCCC/C=C/c1c(O)c(Cl)cc(C=O)c1O [203-12, 5-Chloro-3-(1-dodecenyl)-2,4-dihydroxybenzaldehyde] | 84 to 85 | 0.5 |  |  | 
18 | CCCCCCCCCc1c(O)c(Cl)c(C)c(C=O)c1O [215-9, 3-Chloro-4,6-dihydroxy-2-methyl-5-nonylbenzaldehyde] | 89 to 90 | 0.21 |  |  | 
19 | C/C(=C\Cc1c(O)c(Cl)c(C)c(C=O)c1O)CC/C=C(\C)[C@@H]1CC(=O)C(C)(C)O1 [AF, ascofuranone, reference compound] |  |  | 0.2 |  | minimal effective concentration ([2]; 24 h): 200 µM; inhibition of the glycerol-3-phosphate oxidation system of trypanosome [3]: very low concentration of the order of nM
20 | CCCC[C@H]1C(=O)O[C@H](C)[C@H](NC(=O)c2cccc(NC=O)c2O)C(=O)O[C@@H](C)[C@@H]1OC(=O)CC(C)C [antimycin A3] |  |  |  |  | absolute amounts of 50% inhibition [4]: 48,600 pmol/mg protein
21 | CCCCCCCC/C=C/c1c(O)ccc(C=O)c1O [compound 197, 3-(1-Decenyl)-2,4-dihydroxybenzaldehyde] |  | 120 | 50 | 50 | 
22 | CCCCCCCCCC/C=C/c1c(O)cc(C)c(C=O)c1O [compound 198, 3-(1-Dodecenyl)-2,4-dihydroxy-6-methylbenzaldehyde] | 103 to 105 | 16 | 50 | 50 | 
23 | COc1c(Cl)c(C)c(C=O)c(O)c1C/C=C(\C)CC/C=C(\C)[C@@H]1CC(=O)C(C)(C)O1 [compound 211, 3-Chloro-6-hydroxy-4-methoxy-2-methyl-5-[(E,E)-3-methyl-7-(tetrahydro-5,5-dimethyl-4-oxo-2-furanyl)-2,6-octadienyl]benzaldehyde] |  | 4 |  |  | 
24 | C/C(=C\Cc1c(O)c(Cl)c(C)c(/C=N/O)c1O)CC/C=C(\C)[C@@H]1CC(=O)C(C)(C)O1 [compound 213, 5-[(E,E)-7-(3-Chloro-2,6-dihydroxy-5-hydroxyiminomethyl-4-methylphenyl)-1,5-dimethyl-1,5-heptadienyl]-4,5-dihydro-2,2-dimethyl-3(2H)-furanone] | 102 to 103 | 28 |  |  | 
25 | CC(C)=CCCC(C)CC(O)c1c(O)c(Cl)c(C)c(C=O)c1O (centres unmarked) [compound 220, 3-chloro-4,6-dihydroxy-5-(1-hydroxy-3,7-dimethyl-6-octenyl)-2-methylbenzaldehyde] |  | 20 |  |  | 
26 | CO/C(=C/C(N)=O)[C@H](C)[C@H](/C=C/c1csc(-c2csc([C@@H](C)/C=C/C=C/C(C)C)n2)n1)OC [myxothiazol] |  |  |  |  | absolute amounts of 50% inhibition [4]: 21,500 pmol/mg protein
27 | C/C=C(C)/C=C/C=C/[C@H](OC)[C@@H](C)[C@@H](OC)[C@@H](C)CCc1oc2c(O)c(OC)cc(OC)c2c(=O)c1C [stigmatellin] |  |  |  |  | absolute amounts of 50% inhibition [4]: 18,600 pmol/mg protein
